Reference: PubChem BioAssay (NCI)
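Method: 48-hour compound exposure of cells in 96-well plates, five concentrations, linear interpolation of endpoints. GI50 marks 50% less growth. TGI marks complete inhibition of growth.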

How the values were obtained:
Test in all cases: NCI anticancer screen, dose series, 48 h
786-0 renal = test system: 786-0 renal
A498 renal = test system: A498 renal
A549 NSCLC = test system: A549 NSCLC
ACHN renal = test system: ACHN renal
BT-549 breast = test system: BT-549 breast
CAKI-1 renal = test system: CAKI-1 renal
CCRF-CEM leukemia = test system: CCRF-CEM leukemia
COLO 205 colon = test system: COLO 205 colon
DU-145 prostate = test system: DU-145 prostate
EKVX NSCLC = test system: EKVX NSCLC
HCC-2998 colon = test system: HCC-2998 colon
HCT-116 colon = test system: HCT-116 colon
HCT-15 colon = test system: HCT-15 colon
HL-60(TB) leukemia = test system: HL-60(TB) leukemia
HOP-62 NSCLC = test system: HOP-62 NSCLC
HOP-92 NSCLC = test system: HOP-92 NSCLC
HS 578T breast = test system: HS 578T breast
HT29 colon = test system: HT29 colon
IGROV1 ovarian = test system: IGROV1 ovarian
KM12 colon = test system: KM12 colon
LOX IMVI melanoma = test system: LOX IMVI melanoma
M14 melanoma = test system: M14 melanoma
MALME-3M melanoma = test system: MALME-3M melanoma
MCF7 breast = test system: MCF7 breast
MDA-MB-231 breast = test system: MDA-MB-231 breast
MDA-MB-435 = test system: MDA-MB-435
MOLT-4 leukemia = test system: MOLT-4 leukemia
NCI-H226 lung = test system: NCI-H226 lung
NCI-H23 lung = test system: NCI-H23 lung
NCI-H460 lung = test system: NCI-H460 lung
NCI-H522 lung = test system: NCI-H522 lung
NCI/ADR-RES ovarian = test system: NCI/ADR-RES ovarian
OVCAR-3 ovarian = test system: OVCAR-3 ovarian
OVCAR-4 ovarian = test system: OVCAR-4 ovarian
OVCAR-5 ovarian = test system: OVCAR-5 ovarian
OVCAR-8 ovarian = test system: OVCAR-8 ovarian
PC-3 prostate = test system: PC-3 prostate
RPMI-8226 leukemia = test system: RPMI-8226 leukemia
SF-268 CNS = test system: SF-268 CNS
SF-295 CNS = test system: SF-295 CNS
SF-539 CNS = test system: SF-539 CNS
SK-MEL-2 melanoma = test system: SK-MEL-2 melanoma
SK-MEL-28 melanoma = test system: SK-MEL-28 melanoma
SK-MEL-5 melanoma = test system: SK-MEL-5 melanoma
SK-OV-3 ovarian = test system: SK-OV-3 ovarian
SN12C renal = test system: SN12C renal
SNB-19 CNS = test system: SNB-19 CNS
SNB-75 CNS = test system: SNB-75 CNS
SR leukemia = test system: SR leukemia
SW-620 colon = test system: SW-620 colon
T-47D breast = test system: T-47D breast
TK-10 renal = test system: TK-10 renal
U251 CNS = test system: U251 CNS
UACC-257 melanoma = test system: UACC-257 melanoma
UACC-62 melanoma = test system: UACC-62 melanoma
UO-31 renal = test system: UO-31 renal
K-562 leukemia = test system: K-562 leukemia
RXF 393 renal = test system: RXF 393 renal

CCCCCCCCCCCCOC1C(CNC(=O)C2OC3OC(C)(C)OC3C2NC(=O)Nc2ccc(CC(=O)OC)cc2)OC2OC(C)(C)OC21 (centres undefined)
GI50 (786-0 renal): > 100 µM | TGI (786-0 renal): > 100 µM | GI50 (A498 renal): > 100 µM | TGI (A498 renal): > 100 µM | GI50 (A549 NSCLC): > 100 µM | TGI (A549 NSCLC): > 100 µM | GI50 (ACHN renal): > 100 µM | TGI (ACHN renal): > 100 µM | GI50 (BT-549 breast): > 100 µM | TGI (BT-549 breast): > 100 µM | GI50 (CAKI-1 renal): 47 µM | TGI (CAKI-1 renal): > 100 µM | GI50 (CCRF-CEM leukemia): > 19.6 µM | TGI (CCRF-CEM leukemia): > 100 µM | GI50 (COLO 205 colon): > 72.5 µM | TGI (COLO 205 colon): > 100 µM | GI50 (DU-145 prostate): > 77 µM | TGI (DU-145 prostate): > 100 µM | GI50 (EKVX NSCLC): > 100 µM | TGI (EKVX NSCLC): > 100 µM | GI50 (HCC-2998 colon): > 100 µM | TGI (HCC-2998 colon): > 100 µM | GI50 (HCT-116 colon): 12.5 µM | TGI (HCT-116 colon): > 100 µM | GI50 (HCT-15 colon): > 100 µM | TGI (HCT-15 colon): > 100 µM | TGI (HL-60(TB) leukemia): > 47.9 µM | GI50 (HOP-62 NSCLC): > 50.2 µM | TGI (HOP-62 NSCLC): > 100 µM | GI50 (HOP-92 NSCLC): > 100 µM | TGI (HOP-92 NSCLC): > 100 µM | GI50 (HS 578T breast): > 100 µM | TGI (HS 578T breast): > 100 µM | GI50 (HT29 colon): > 100 µM | TGI (HT29 colon): > 100 µM | GI50 (IGROV1 ovarian): > 90.9 µM | TGI (IGROV1 ovarian): > 100 µM | GI50 (KM12 colon): > 100 µM | TGI (KM12 colon): > 100 µM | GI50 (LOX IMVI melanoma): 47.7 µM | TGI (LOX IMVI melanoma): > 100 µM | GI50 (M14 melanoma): 22.7 µM | TGI (M14 melanoma): > 100 µM | GI50 (MALME-3M melanoma): > 78.1 µM | TGI (MALME-3M melanoma): > 100 µM | GI50 (MCF7 breast): > 100 µM | TGI (MCF7 breast): > 100 µM | GI50 (MDA-MB-231 breast): 8.43 µM | TGI (MDA-MB-231 breast): > 82 µM | GI50 (MDA-MB-435): > 100 µM | TGI (MDA-MB-435): > 100 µM | TGI (MOLT-4 leukemia): > 100 µM | GI50 (NCI-H226 lung): > 100 µM | TGI (NCI-H226 lung): > 100 µM | GI50 (NCI-H23 lung): > 100 µM | TGI (NCI-H23 lung): > 100 µM | GI50 (NCI-H460 lung): > 100 µM | TGI (NCI-H460 lung): > 100 µM | GI50 (NCI-H522 lung): > 100 µM | TGI (NCI-H522 lung): > 100 µM | GI50 (NCI/ADR-RES ovarian): > 100 µM | TGI (NCI/ADR-RES ovarian): > 100 µM | GI50 (OVCAR-3 ovarian): > 100 µM | TGI (OVCAR-3 ovarian): > 100 µM | GI50 (OVCAR-4 ovarian): > 100 µM | TGI (OVCAR-4 ovarian): > 100 µM | GI50 (OVCAR-5 ovarian): > 100 µM | TGI (OVCAR-5 ovarian): > 100 µM | GI50 (OVCAR-8 ovarian): > 100 µM | TGI (OVCAR-8 ovarian): > 100 µM | GI50 (PC-3 prostate): > 100 µM | TGI (PC-3 prostate): > 100 µM | GI50 (RPMI-8226 leukemia): > 100 µM | TGI (RPMI-8226 leukemia): > 100 µM | GI50 (SF-268 CNS): > 100 µM | TGI (SF-268 CNS): > 100 µM | GI50 (SF-295 CNS): > 34.8 µM | TGI (SF-295 CNS): > 49.5 µM | GI50 (SF-539 CNS): > 100 µM | TGI (SF-539 CNS): > 100 µM | GI50 (SK-MEL-2 melanoma): > 100 µM | TGI (SK-MEL-2 melanoma): > 100 µM | GI50 (SK-MEL-28 melanoma): > 100 µM | TGI (SK-MEL-28 melanoma): > 100 µM | GI50 (SK-MEL-5 melanoma): > 100 µM | TGI (SK-MEL-5 melanoma): > 100 µM | GI50 (SK-OV-3 ovarian): > 100 µM | TGI (SK-OV-3 ovarian): > 100 µM | GI50 (SN12C renal): > 100 µM | TGI (SN12C renal): > 100 µM | GI50 (SNB-19 CNS): > 100 µM | TGI (SNB-19 CNS): > 100 µM | GI50 (SNB-75 CNS): > 100 µM | TGI (SNB-75 CNS): > 100 µM | GI50 (SR leukemia): > 100 µM | TGI (SR leukemia): > 100 µM | GI50 (SW-620 colon): > 100 µM | TGI (SW-620 colon): > 100 µM | GI50 (T-47D breast): > 100 µM | TGI (T-47D breast): > 100 µM | GI50 (TK-10 renal): > 100 µM | TGI (TK-10 renal): > 100 µM | GI50 (U251 CNS): 18.3 µM | TGI (U251 CNS): > 100 µM | GI50 (UACC-257 melanoma): > 100 µM | TGI (UACC-257 melanoma): > 100 µM | GI50 (UACC-62 melanoma): > 100 µM | TGI (UACC-62 melanoma): > 100 µM | GI50 (UO-31 renal): > 100 µM | TGI (UO-31 renal): > 100 µM

O=C(O)CN1C=C(C(=O)c2cc3ccccc3n2S(=O)(=O)c2ccccc2)CCC1
TGI (786-0 renal): > 100 µM | TGI (A498 renal): > 100 µM | TGI (A549 NSCLC): > 100 µM | TGI (ACHN renal): > 100 µM | TGI (BT-549 breast): > 100 µM | TGI (CAKI-1 renal): > 100 µM | TGI (CCRF-CEM leukemia): > 100 µM | TGI (COLO 205 colon): 42.5 µM | TGI (DU-145 prostate): > 100 µM | TGI (EKVX NSCLC): > 100 µM | TGI (HCC-2998 colon): > 100 µM | TGI (HCT-116 colon): > 100 µM | TGI (HCT-15 colon): > 100 µM | TGI (HL-60(TB) leukemia): 71.5 µM | TGI (HOP-62 NSCLC): > 100 µM | TGI (HOP-92 NSCLC): > 100 µM | TGI (HS 578T breast): > 100 µM | TGI (HT29 colon): > 100 µM | TGI (IGROV1 ovarian): > 100 µM | TGI (K-562 leukemia): > 100 µM | TGI (KM12 colon): > 100 µM | TGI (LOX IMVI melanoma): > 100 µM | TGI (M14 melanoma): > 100 µM | TGI (MALME-3M melanoma): > 100 µM | TGI (MCF7 breast): > 100 µM | TGI (MDA-MB-231 breast): > 100 µM | TGI (MDA-MB-435): > 100 µM | TGI (MOLT-4 leukemia): > 100 µM | TGI (NCI-H226 lung): > 100 µM | TGI (NCI-H23 lung): > 100 µM | TGI (NCI-H460 lung): > 100 µM | TGI (NCI/ADR-RES ovarian): > 100 µM | TGI (OVCAR-3 ovarian): > 100 µM | TGI (OVCAR-4 ovarian): > 100 µM | TGI (OVCAR-5 ovarian): > 100 µM | TGI (OVCAR-8 ovarian): > 100 µM | TGI (PC-3 prostate): > 100 µM | TGI (RXF 393 renal): > 100 µM | TGI (SF-268 CNS): > 100 µM | TGI (SF-295 CNS): > 100 µM | TGI (SF-539 CNS): > 100 µM | TGI (SK-MEL-2 melanoma): > 100 µM | TGI (SK-MEL-28 melanoma): > 100 µM | TGI (SK-MEL-5 melanoma): 71.8 µM | TGI (SNB-19 CNS): > 100 µM | TGI (SNB-75 CNS): > 100 µM | TGI (SR leukemia): > 100 µM | TGI (SW-620 colon): > 100 µM | TGI (T-47D breast): > 100 µM | TGI (TK-10 renal): > 100 µM | TGI (U251 CNS): > 100 µM | TGI (UACC-257 melanoma): > 100 µM | TGI (UACC-62 melanoma): > 100 µM | TGI (UO-31 renal): > 100 µM
